# From PubChem BioAssay AID2060887 (Molecular Pharmacology Branch, DTP, NCI, 2025)
# Several values for one entry are separate records, joined by “and”; a condition that tells them apart may be missing. Identical values can stand only once.
# Tested on: 782815-120-R-J1-PDC complex spheroid viability
# Test: Anticancer human tumor 782815-120-R-J1-PDC patient-derived colon adenocarcinoma cell line growth inhibition [RAS]
# Conditions: for viability, T/C: stronger effect = lower value
# From the text: RAS pathway inhibitors in Combinations in Complex Spheroids
# A high-throughput screen of multi-cell type tumor spheroids was designed to identify active combinations of RAS pathway inhibitors and targeted small molecules. Complex spheroids include a stromal component modeled by human endothelial cells (HUVEC) and fibroblasts modeled by human mesenchymal stem cells (MSCs). The concentration ranges selected for each drug and investigational agent were based upon clinically achievable concentrations if the clinical Cmax of the agent was known.
# Compounds. The drugs and investigational agents: abemaciclib (NSC768073), cobimetinib (NSC768068), divarasib (GDC6063, NSC841802), docetaxel (NSC628503), GDC-1971 (RLY-1971, NSC841576), gemcitabine (NSC613327), inavolisib (NSC800729), ipatasertib (NSC767898), KB-0742 (NSC834161), MRTX-1133 (NSC836407), osimertinib (NSC779217), RMC-4630 (NSC839698), RMC-6236 (NSC851965), RMC-6291 (NSC852671), Ro-3306 (NSC812927), sapanisertib (NSC764658), SN-38 (NSC673596), staurosporine (NSC755774), SY5609 (NSC837396), and tovorafenib (DAY101, NSC766906), were obtained from the National Cancer Institute (NCI) Developmental Therapeutics Program Chemical Repository. The FDA-approved anticancer drug set is available from the NCI Developmental Therapeutics Program. […] The stock solutions were prepared in dimethyl sulfoxide (DMSO, Sigma-Aldrich, St. Louis, MO, cat. D2650) at 800-fold the tested concentration and stored at -70 degrees C prior to their use. All drugs and investigational agents were tested over a range starting from a high concentration at or near the clinical Cmax and decreasing in half-log increments. If the clinical Cmax for an agent had not been determined, the highest concentration tested was 10 microM.
# Cell Culture. All cells were maintained in an incubator at 37 degrees C and 5% CO2 with 95% humidity. The PDC lines were cultured according to standard operating procedures established by the NCI PDMR. All PDCs were thawed and cultured in Matrigel-coated flasks prepared with a working solution of 1X Ham's F-12 nutrient mix, without supplementation (Invitrogen, Waltham, MA, cat. 11765054), 100 U/mL penicillin-streptomycin (Invitrogen, cat. 15140122), and 2.5% Matrigel (Corning Inc., Corning, NY, cat. 354248) for the first three passages. The 362531-283-R-J2-PDC and 782815-120-R-J1-PDC lines were cultured in 6C/Colon 1B media, which includes advanced DMEM/F-12 (Thermo Fisher Scientific, cat. 12634028), 10 mM HEPES (Thermo Fisher Scientific, cat. 15630080), 1X GlutaMAX supplement (Thermo Fisher Scientific, cat. 35050061), 0.1 mg/mL primocin (InvivoGen, San Diego, CA, cat. ant-pm-2), 10% defined fetal bovine serum, heat inactivated (HyClone Laboratories Inc., Logan, UT, cat. SH30070.03HI), 50% L-WRN conditioned media (ATCC, cat. CRL-3276), 1.25 mM N-Acetyl-L-cysteine (Sigma-Aldrich, cat. A9165), 10 mM nicotinamide (Sigma-Aldrich, cat. N0636), 1X B-27 supplement (Thermo Fisher Scientific, cat. 17504044), 1X N-2 supplement (Thermo Fisher Scientific, cat. 17502048), 50 ng/mL human EGF (Thermo Fisher Scientific, cat. PHG0311), and 10 microM Y-27632 dihydrochloride (Tocris Bioscience, cat. 1254). The K12877-001-R-J1-PDC line was cultured in 6I media, which includes all 6C/Colon 1B media plus 10 ng/mL human FGF-10 (PeproTech, cat. 100-26), 1 ng/mL human FGF-2 (PeproTech, cat. 100-18B), 1 µM prostaglandin E2 (Tocris Bioscience, cat. 2296), […] hydrocortisone (Sigma-Aldrich, cat. H4001), and […] bovine insulin (Sigma-Aldrich, cat. I6634). The K86415-001-R-J1-PDC line was cultured in 6D media, which includes all 6C/Colon 1B media components minus the L-WRN conditioned media. The 485176-168-R4-J1-PDC was cultured in PANC media, which includes all 6C/Colon 1B media plus 100 ng/mL human FGF-10 (PeproTech, cat. 100-26), 500 nM SB-431542 (Selleckchem, cat. S1067), and 10 nM gastrin (Tocris Bioscience, cat. 3006). […]
# 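Note: spheroids exposed to compounds for 7 days before reading.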
# 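Throughout, for viability, T/C: 100% = DMSO vehicle control viability.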
smiles,measurement,setting,value
C[C@@H](NC(=O)c1ncnc(N)c1Cl)c1ncc(C(=O)Nc2cc(C(F)(F)F)c(Cl)cn2)s1,"viability, T/C",compound 0.0316 µM,105% [middle of 4 runs]
same,"viability, T/C",compound 0.1 µM,99.3% [middle of 4 runs]
same,"viability, T/C",compound 0.316 µM,98.1% [middle of 4 runs]
same,"viability, T/C",compound 3.16 µM,83% [middle of 4 runs]
same,"viability, T/C",compound 10 µM,62.2% [middle of 4 runs]
same,IC50,curve of compound,> 10 µM
CC(C)NCC(C(=O)N1CCN(c2ncnc3c2C(C)CC3O)CC1)c1ccc(Cl)cc1 (stereo not given) + CCn1c(-c2cccnc2C(C)OC)c2c3cc(ccc31)N1CCOC(CC(NC(=O)C(C(C)C)N(C)C(=O)C3(F)CCN(C(=O)C#CC(C)(C)N(C)C)CC3)C(=O)N3CCCC(N3)C(=O)OCC(C)(C)C2)C1,IC50,"curve of first compound, second compound 0.000949 µM",> 10 µM
same,IC50,"curve of first compound, second compound 0.003 µM",> 10 µM
same,IC50,"curve of first compound, second compound 0.00949 µM",> 10 µM
same,IC50,"curve of first compound, second compound 0.03 µM",> 10 µM
same,IC50,"curve of first compound, second compound 0.0949 µM",> 10 µM
same,IC50,"curve of first compound, second compound 0.3 µM",> 10 µM
same,"viability, T/C","second compound 0.000949 µM, first compound 0.0316 µM",90.6%
same,"viability, T/C","second compound 0.000949 µM, first compound 0.1 µM",90.6%
same,"viability, T/C","second compound 0.000949 µM, first compound 0.316 µM",104%
same,"viability, T/C","second compound 0.000949 µM, first compound 1 µM",88.8%
same,"viability, T/C","second compound 0.000949 µM, first compound 3.16 µM",97.8%
same,"viability, T/C","second compound 0.000949 µM, first compound 10 µM",104%
same,"viability, T/C","second compound 0.003 µM, first compound 0.0316 µM",86.3%
same,"viability, T/C","second compound 0.003 µM, first compound 0.1 µM",98.3%
same,"viability, T/C","second compound 0.003 µM, first compound 0.316 µM",97%
same,"viability, T/C","second compound 0.003 µM, first compound 1 µM",91.5%
same,"viability, T/C","second compound 0.003 µM, first compound 3.16 µM",98.2%
same,"viability, T/C","second compound 0.003 µM, first compound 10 µM",97.5%
same,"viability, T/C","second compound 0.00949 µM, first compound 0.0316 µM",95.4%
same,"viability, T/C","second compound 0.00949 µM, first compound 0.1 µM",95.9%
same,"viability, T/C","second compound 0.00949 µM, first compound 0.316 µM",99.7%
same,"viability, T/C","second compound 0.00949 µM, first compound 1 µM",93.3%
same,"viability, T/C","second compound 0.00949 µM, first compound 3.16 µM",104%
same,"viability, T/C","second compound 0.00949 µM, first compound 10 µM",104%
same,"viability, T/C","second compound 0.03 µM, first compound 0.0316 µM",105%
same,"viability, T/C","second compound 0.03 µM, first compound 0.1 µM",90.6%
same,"viability, T/C","second compound 0.03 µM, first compound 0.316 µM",91.9%
same,"viability, T/C","second compound 0.03 µM, first compound 1 µM",94.9%
same,"viability, T/C","second compound 0.03 µM, first compound 3.16 µM",97.2%
same,"viability, T/C","second compound 0.03 µM, first compound 10 µM",96.7%
same,"viability, T/C","second compound 0.0949 µM, first compound 0.0316 µM",97.1%
same,"viability, T/C","second compound 0.0949 µM, first compound 0.1 µM",97.2%
same,"viability, T/C","second compound 0.0949 µM, first compound 0.316 µM",91.9%
same,"viability, T/C","second compound 0.0949 µM, first compound 1 µM",95.1%
same,"viability, T/C","second compound 0.0949 µM, first compound 3.16 µM",107%
same,"viability, T/C","second compound 0.0949 µM, first compound 10 µM",101%
same,"viability, T/C","second compound 0.3 µM, first compound 0.0316 µM",93.4%
same,"viability, T/C","second compound 0.3 µM, first compound 0.1 µM",93.8%
same,"viability, T/C","second compound 0.3 µM, first compound 0.316 µM",90.4%
same,"viability, T/C","second compound 0.3 µM, first compound 1 µM",93.2%
same,"viability, T/C","second compound 0.3 µM, first compound 3.16 µM",97.2%
same,"viability, T/C","second compound 0.3 µM, first compound 10 µM",92.4%
CC(Nc1ccc2c(c1)OCCn1cc(N3C(=O)OCC3C(F)F)nc1-2)C(N)=O (stereo not given),"viability, T/C",compound 0.0316 µM,102% (2×) and 103% and 93.2%
same,"viability, T/C",compound 0.1 µM,97.5% [middle of 4 runs]
same,"viability, T/C",compound 0.316 µM,90.9% [middle of 4 runs]
same,"viability, T/C",compound 1 µM,87.2% [middle of 4 runs]
same,"viability, T/C",compound 3.16 µM,100% [middle of 4 runs]
same,"viability, T/C",compound 10 µM,93% [middle of 4 runs]
same,IC50,curve of compound,> 10 µM
